12 compounds from ChEMBL document CHEMBL1201862, “PubChem BioAssay data set” (2004) can be followed below.

The source made the active and inactive calls.

Experiment [1] has as its target DNA dC->dU-editing enzyme APOBEC-3A (Homo sapiens, UniProt P31941). Briefly: APOBEC3A DNA deaminase inhibitors, dose response, biochemical (AID 504722). The format is functional.
For experiment [2], the target named is DNA dC->dU-editing enzyme APOBEC-3G (Homo sapiens, UniProt Q9HC16). Put plainly: Dose Response confirmation of small molecule APOBEC3G DNA Deaminase Inhibitors via a fluorescence-based single-stranded DNA deaminase assay. [Related pubchem assays (depositor defined):AID493012, AID493028]. The format is functional.
Chain of DNA dC->dU-editing enzyme APOBEC-3G (Q9HC16 whole entry): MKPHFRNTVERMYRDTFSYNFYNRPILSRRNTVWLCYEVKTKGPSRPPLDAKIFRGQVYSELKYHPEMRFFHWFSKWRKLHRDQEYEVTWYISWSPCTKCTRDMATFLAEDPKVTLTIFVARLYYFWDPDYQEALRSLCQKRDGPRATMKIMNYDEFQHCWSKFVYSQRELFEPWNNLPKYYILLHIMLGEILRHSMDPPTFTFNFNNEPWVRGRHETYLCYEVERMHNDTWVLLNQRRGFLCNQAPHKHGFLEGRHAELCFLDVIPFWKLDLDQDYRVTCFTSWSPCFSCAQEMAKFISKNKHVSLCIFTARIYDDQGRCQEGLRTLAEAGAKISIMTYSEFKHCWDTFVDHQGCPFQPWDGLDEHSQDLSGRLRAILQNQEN
Experiment [3] has as its target T1, Cysteine protease ATG4B (Homo sapiens, UniProt Q9Y4P1).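 Further: Fluorescence-based dose-response confirmation assay measuring inhibition of ATG4B activity.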
T1 sequence (Q9Y4P1 whole entry): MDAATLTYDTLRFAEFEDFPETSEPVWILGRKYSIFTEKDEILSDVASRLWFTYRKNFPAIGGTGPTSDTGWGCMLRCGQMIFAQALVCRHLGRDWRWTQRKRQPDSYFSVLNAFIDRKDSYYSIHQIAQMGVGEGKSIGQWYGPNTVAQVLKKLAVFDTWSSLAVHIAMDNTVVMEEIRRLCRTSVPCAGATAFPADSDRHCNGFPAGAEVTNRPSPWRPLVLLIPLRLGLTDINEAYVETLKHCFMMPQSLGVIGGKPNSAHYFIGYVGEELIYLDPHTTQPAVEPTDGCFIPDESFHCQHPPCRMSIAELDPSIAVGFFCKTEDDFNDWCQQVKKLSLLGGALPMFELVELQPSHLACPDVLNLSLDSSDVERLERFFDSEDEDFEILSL
The format is functional.

For experiment [4], the target named is Phospholipase A2 (Homo sapiens, UniProt P04054). The class given is functional.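 Further: confirmatory dose-response counterscreen on phospholipase A2, testing hits that came from an ultra-high-throughput screen for ATG4B inhibitors.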
Chain of Phospholipase A2 (P04054 whole entry): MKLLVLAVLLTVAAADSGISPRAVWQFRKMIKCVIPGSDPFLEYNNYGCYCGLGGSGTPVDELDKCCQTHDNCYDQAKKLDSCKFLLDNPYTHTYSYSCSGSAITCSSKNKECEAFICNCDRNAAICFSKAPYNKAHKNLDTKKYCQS
Experiment [5] in a line: microbe, parasite or virus in culture. The class given is functional. Particulars: Mycobacterium tuberculosis.
In experiment [6] the target is Beta-galactosidase (Escherichia coli, UniProt Q8VNN2). Put plainly: beta-galactosidase enzyme inhibitors and activators, dose response, artefact control for CCR6 antagonist project, biochemical, E. coli enzyme, set 3 (AID 504712). The class given is functional.
Chain of Beta-galactosidase (Q8VNN2 whole entry): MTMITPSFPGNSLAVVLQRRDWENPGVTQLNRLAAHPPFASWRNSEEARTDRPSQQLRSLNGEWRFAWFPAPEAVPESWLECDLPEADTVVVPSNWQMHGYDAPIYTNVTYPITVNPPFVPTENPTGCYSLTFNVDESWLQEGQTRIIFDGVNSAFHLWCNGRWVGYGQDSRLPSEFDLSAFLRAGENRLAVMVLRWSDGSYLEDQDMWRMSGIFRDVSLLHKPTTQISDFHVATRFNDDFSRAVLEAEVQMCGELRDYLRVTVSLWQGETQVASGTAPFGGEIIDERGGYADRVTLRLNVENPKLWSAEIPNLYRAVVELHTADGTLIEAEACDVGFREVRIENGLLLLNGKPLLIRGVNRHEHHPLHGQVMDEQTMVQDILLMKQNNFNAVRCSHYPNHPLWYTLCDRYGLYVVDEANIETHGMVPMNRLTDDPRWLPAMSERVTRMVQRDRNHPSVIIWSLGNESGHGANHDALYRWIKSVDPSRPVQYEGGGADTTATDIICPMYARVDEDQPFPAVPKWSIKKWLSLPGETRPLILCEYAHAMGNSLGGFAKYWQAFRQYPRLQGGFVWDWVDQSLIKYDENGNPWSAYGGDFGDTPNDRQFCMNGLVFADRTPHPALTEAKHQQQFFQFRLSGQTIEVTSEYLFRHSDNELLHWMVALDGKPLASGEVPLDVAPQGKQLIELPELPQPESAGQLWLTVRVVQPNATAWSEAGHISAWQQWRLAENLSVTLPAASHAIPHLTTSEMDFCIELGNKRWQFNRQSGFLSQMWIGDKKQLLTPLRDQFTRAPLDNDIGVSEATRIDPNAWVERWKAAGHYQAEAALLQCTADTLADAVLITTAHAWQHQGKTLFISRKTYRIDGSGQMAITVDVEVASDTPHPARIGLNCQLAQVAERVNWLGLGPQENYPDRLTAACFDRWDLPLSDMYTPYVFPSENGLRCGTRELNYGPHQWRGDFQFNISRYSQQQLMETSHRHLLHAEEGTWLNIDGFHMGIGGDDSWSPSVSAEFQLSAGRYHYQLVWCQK
The target in experiment [7] is T2, Heat shock factor protein 1 (Mus musculus, UniProt P38532).
T2 sequence (P38532 whole entry): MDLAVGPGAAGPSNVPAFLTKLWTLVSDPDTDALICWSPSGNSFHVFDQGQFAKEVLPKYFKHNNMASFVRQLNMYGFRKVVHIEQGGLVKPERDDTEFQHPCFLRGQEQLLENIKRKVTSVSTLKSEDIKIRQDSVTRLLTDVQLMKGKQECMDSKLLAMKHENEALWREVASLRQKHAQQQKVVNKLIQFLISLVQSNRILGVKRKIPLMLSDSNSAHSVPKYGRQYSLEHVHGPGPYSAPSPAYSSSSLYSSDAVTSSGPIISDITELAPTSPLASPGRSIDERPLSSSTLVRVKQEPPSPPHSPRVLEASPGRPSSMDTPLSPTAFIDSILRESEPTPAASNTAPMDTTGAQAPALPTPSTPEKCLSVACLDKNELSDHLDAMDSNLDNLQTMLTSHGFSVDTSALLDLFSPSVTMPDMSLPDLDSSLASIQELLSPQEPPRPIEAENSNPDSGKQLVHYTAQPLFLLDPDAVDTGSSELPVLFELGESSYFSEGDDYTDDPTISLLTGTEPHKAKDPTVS
Briefly: HSF1 potentiators in luciferase reporter cells, confirmation, cell-based, NIH3T3, luminescence, dose retest (AID 435004).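 Further: stress induced by proteasome inhibitor MG132 added 30 min after compound; luciferase reporter driven by HSF1 response element in NIH3T3 cells; actives raise luminescence as potentiators of the MG132 stress response.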 The format is functional. (In general: A reporter such as luciferase makes a cellular process visible.)

For experiment [8], the target named is Heat shock protein HSP 90-alpha (Homo sapiens, UniProt P07900). The class given is functional, organism-based.
In experiment [9] the test system is INS1. Briefly: beta cell apoptosis inhibitors, cytokine rescue, dose response, luminescence, retest (AID 449756).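 Further: cell death triggered by IL-1 beta plus TNF-alpha plus IFN-gamma mixture; protective hits raise ATP signal compared with cytokine alone wells.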 The format is functional, cell-based. The settings on record: Rattus norvegicus.
The nature of experiment [10]: Shn3 3'UTR reporter inhibitors, dose response, cell-based, Clone20 osteoblasts, firefly luciferase, cherry-picked (AID 624132).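 Further: firefly luciferase luminescence from reporter carrying the Shn3 3'UTR in osteoblasts.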 The class given is functional.
Experiment [11] is described as follows: HepG2 cell cytotoxicity, dose response, cytotoxicity control for Shn3 inhibitor project, CellTiter-Glo, cherry-picked (AID 624134). The format is functional, cell-based. For orientation: In ATP-based viability assays light output follows the ATP content of the culture.
Experiment [12] in a line: control 3'UTR Renilla luciferase suppression, dose response, counter-screen for Shn3 inhibitor project, cell-based, Clone20-Shn3RL, cherry-picked (AID 624133). The class given is functional. (In general: The purpose of a counterscreen is to sort out artefacts and off-target activity.)
The nature of experiment [13]: HeLa cell cytotoxicity, dose response, cytotoxicity control for MgcRacGAP inhibitor project (AID 624300). The class given is functional.
In experiment [14] the target is T3, Rac GTPase-activating protein 1 (Homo sapiens, UniProt Q9H0H5).
T3 sequence (Q9H0H5 whole entry): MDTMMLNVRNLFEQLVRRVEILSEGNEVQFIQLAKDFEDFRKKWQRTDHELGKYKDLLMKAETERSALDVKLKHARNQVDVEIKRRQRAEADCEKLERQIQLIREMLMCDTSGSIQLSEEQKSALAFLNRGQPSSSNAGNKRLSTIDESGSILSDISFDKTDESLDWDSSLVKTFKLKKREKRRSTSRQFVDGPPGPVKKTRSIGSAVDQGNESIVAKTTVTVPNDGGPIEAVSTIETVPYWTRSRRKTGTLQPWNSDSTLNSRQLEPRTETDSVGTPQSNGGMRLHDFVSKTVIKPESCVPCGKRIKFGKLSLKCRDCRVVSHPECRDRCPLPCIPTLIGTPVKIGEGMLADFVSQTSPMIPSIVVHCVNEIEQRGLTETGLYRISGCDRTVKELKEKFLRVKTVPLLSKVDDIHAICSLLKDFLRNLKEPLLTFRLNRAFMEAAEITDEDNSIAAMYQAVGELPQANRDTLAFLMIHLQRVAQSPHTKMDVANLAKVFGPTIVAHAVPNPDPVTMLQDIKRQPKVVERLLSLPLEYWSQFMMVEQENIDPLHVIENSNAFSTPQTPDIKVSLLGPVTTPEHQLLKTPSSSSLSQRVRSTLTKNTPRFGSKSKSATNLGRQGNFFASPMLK
Briefly: MgcRacGAP GTPase-activating activity inhibitors, confirmation, biochemical, ADP Hunter fluorescence, primary and confirmatory (AID 624330). The format is functional.

Experiment [15] addresses G-protein coupled receptor 55 (Homo sapiens, UniProt Q9Y2T6). Briefly: GPR55 agonists via beta-arrestin recruitment, primary screen, imaging, U2OS cells, beta-arrestin-GFP redistribution (AID 1961). The class given is functional.
A short description of experiment [16]: Luminescence Cell-Based Dose Confirmation HTS to Identify Activators of 5'UTR Stem-Loop Driven Alpha-Synuclein mRNA Translation in H4 Neuroglioblastoma Cells. [Related pubchem assays: 1829 (Project Summary), 1814 (Primary HTS)]. The format is functional.
A short description of experiment [17]: Luminescence Cell-Based Dose Response HTS to Identify Activators of Luciferase Translation or Activity in H4 […] Cells. [Related pubchem assays: 1829 (Project Summary), 1814 (Primary HTS)]. The class given is functional.
The test system of experiment [18] is H4. Briefly: Luminescence Cell-Based Dose Response HTS to Identify Activators of 5'UTR Stem-Loop Driven Prion Protein mRNA Translation in H4 Neuroglioblastoma Cells. [Related pubchem assays: 1829 (Project Summary), 1814 (Primary HTS)]. The class given is functional. The settings on record: Homo sapiens.
The test system of experiment [19] is Vero. Briefly: Vero cell cytotoxicity, cytotoxicity control for flavivirus capping enzyme inhibitors (AID 588742). The class given is functional. Particulars: Chlorocebus sabaeus.
Experiment [20] concerns the target Genome polyprotein (dengue virus type 2, UniProt P29990). Put plainly: Dengue-2 NS5 methyltransferase inhibitors, primary screen, biochemical, confirmation dose response (AID 588689). The format is functional.
Experiment [21] has as its target Large T antigen (Simian virus 40, UniProt P03070). The format is functional, Betapolyomavirus macacae.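 Further: Confirmatory-stage PubChem screen for compounds that inhibit SV40 T antigen.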
Experiment [22] concerns the target Glucose-6-phosphate 1-dehydrogenase (Homo sapiens, UniProt P11413). Put plainly: human G6PD enzyme inhibitors, dose response, selectivity assay for P. falciparum G6PD inhibitor project, biochemical, fluorescence (AID 504792). The class given is functional.
Experiment [23] addresses Eukaryotic translation initiation factor 4E (Mus musculus, UniProt P63073). Put plainly: eIF4E–eIF4G protein interaction inhibitors, dose response, biochemical, TR-FRET (AID 855).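 Further: potency for disrupting eIF4E binding to eIF4GI seen as loss of FRET.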 The format is functional.
Experiment [24] addresses Trypsin (Sus scrofa, UniProt P00761). Briefly: porcine trypsin inhibitors, dose response, selectivity assay for Rce1 protease inhibitor project, biochemical, quenched peptide fluorescence, cherry-pick (AID 488789).
The target of experiment [25] is T4, CAAX prenyl protease 2 (Saccharomyces cerevisiae S288c, UniProt Q03530).
T4 sequence (Q03530 whole entry): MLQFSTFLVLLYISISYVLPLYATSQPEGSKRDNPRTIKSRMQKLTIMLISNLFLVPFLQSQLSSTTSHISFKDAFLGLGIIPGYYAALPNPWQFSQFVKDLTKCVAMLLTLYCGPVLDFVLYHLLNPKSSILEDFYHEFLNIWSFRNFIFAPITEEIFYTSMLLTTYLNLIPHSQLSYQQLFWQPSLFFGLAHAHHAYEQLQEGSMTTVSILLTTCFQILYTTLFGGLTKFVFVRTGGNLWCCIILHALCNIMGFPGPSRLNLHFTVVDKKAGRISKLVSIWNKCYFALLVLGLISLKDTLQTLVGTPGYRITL
The class given is biochemical.

Chain of G-protein coupled receptor 55 (Q9Y2T6 whole entry): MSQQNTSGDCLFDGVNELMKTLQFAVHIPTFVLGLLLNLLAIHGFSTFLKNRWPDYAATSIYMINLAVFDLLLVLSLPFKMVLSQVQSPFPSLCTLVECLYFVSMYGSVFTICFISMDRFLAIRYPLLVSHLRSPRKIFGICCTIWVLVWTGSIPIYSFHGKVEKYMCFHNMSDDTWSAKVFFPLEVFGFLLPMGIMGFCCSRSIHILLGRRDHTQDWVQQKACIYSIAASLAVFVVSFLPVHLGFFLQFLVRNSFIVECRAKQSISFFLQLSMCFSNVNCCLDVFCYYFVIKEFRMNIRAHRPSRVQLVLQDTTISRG
Chain of DNA dC->dU-editing enzyme APOBEC-3A (P31941 whole entry): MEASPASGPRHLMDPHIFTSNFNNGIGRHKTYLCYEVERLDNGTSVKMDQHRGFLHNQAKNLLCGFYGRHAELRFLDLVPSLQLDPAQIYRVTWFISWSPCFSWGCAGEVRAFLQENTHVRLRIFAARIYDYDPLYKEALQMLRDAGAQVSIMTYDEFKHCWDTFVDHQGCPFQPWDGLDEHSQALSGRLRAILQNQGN
Chain of Genome polyprotein (P29990 2492-3391 limits assumed): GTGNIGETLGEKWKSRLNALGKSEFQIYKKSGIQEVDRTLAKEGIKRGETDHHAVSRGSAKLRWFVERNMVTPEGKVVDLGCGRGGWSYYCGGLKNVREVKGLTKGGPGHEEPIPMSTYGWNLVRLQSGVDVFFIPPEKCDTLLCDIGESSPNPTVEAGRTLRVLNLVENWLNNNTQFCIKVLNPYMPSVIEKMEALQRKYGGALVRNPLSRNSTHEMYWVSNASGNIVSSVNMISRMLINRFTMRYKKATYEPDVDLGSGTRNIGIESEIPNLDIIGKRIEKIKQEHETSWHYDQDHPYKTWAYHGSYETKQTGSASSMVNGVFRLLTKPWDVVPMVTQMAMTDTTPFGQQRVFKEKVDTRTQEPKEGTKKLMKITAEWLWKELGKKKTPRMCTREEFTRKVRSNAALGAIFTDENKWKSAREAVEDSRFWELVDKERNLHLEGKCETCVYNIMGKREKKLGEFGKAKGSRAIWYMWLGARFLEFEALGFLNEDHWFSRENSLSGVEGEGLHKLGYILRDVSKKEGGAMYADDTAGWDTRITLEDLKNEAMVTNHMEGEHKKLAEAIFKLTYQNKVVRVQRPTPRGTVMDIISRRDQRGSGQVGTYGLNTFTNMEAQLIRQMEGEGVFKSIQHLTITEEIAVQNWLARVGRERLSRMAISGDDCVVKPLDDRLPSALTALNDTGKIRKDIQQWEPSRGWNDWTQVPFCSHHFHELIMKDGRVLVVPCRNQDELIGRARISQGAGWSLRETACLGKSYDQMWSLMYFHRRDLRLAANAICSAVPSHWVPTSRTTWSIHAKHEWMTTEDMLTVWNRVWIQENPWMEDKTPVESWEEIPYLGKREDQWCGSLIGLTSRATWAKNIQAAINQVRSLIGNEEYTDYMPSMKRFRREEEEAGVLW
Chain of Trypsin (P00761 whole entry): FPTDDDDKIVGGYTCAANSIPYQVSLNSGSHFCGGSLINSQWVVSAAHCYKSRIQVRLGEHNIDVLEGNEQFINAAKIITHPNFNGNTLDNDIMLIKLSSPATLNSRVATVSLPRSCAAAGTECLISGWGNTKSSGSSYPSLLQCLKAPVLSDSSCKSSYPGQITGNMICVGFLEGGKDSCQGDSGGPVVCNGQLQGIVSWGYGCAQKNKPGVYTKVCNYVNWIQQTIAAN
Chain of Large T antigen (P03070 whole entry): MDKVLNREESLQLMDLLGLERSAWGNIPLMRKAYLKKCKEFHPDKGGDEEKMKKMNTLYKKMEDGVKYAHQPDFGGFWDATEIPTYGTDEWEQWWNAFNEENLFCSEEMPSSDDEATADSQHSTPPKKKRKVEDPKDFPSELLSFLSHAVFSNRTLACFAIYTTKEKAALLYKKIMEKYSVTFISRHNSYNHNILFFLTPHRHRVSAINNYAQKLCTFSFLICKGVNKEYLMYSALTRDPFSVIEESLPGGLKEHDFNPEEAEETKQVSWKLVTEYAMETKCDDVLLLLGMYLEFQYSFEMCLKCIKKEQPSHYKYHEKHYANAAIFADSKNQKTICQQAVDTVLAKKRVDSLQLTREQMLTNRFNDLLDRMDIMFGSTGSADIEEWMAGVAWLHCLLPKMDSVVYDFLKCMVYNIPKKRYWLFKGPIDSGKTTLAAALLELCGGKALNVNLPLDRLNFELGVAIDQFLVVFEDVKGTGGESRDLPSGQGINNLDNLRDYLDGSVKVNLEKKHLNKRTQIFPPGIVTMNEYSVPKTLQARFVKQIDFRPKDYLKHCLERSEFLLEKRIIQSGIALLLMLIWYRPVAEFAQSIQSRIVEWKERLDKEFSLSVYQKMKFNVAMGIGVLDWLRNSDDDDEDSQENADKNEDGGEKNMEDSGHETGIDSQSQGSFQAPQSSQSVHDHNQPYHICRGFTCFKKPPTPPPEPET
Chain of Eukaryotic translation initiation factor 4E (P63073 whole entry): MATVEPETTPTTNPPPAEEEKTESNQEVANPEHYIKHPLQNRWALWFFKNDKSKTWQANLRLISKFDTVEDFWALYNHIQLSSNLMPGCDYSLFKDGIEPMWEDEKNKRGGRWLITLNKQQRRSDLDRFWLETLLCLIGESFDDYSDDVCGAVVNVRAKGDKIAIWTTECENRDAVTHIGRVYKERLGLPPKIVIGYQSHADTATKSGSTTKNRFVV
Chain of Glucose-6-phosphate 1-dehydrogenase (P11413 whole entry): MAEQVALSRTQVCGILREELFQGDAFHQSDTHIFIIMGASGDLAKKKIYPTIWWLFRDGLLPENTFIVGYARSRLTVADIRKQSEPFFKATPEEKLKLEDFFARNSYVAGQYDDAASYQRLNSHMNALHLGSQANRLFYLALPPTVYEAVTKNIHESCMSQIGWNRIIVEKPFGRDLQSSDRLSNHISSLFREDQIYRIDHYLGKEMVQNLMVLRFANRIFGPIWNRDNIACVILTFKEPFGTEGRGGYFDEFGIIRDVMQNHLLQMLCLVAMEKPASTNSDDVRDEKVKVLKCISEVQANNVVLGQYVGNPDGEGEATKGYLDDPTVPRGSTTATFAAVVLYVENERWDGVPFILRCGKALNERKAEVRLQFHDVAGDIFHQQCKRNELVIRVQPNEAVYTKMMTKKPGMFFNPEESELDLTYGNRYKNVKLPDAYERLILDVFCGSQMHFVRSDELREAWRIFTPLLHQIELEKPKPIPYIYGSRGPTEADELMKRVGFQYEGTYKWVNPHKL

The IC50 is the concentration at which inhibition is half-maximal. Consider `CCCc1cc(-c2n[nH]c(=S)n2CC)cs1`, for which the IC50 in experiment [1] was > 100 µM (inactive); in experiment [2] it was 6.08 µM (active).

Take `CC(C)(C)c1ccccc1/N=C/c1ccc2ccccc2n1`: the results for the IC50 in experiment [3] and in experiment [4] were 14.2 µM (active) and 16.2 µM (active), respectively.

By EC50 is commonly meant the concentration needed to bring the measured effect to its halfway point. Broadly, the AC50 is the concentration giving half of the maximal activity seen. Turning to `CN(c1ccccc1)c1ccc(/C=C/[N+](=O)[O-])cc1`, the CC50 is 25.9 µM (active) in experiment [5] and 38.5 µM (active) in experiment [13]. Also, the IC50 in [6] is > 66.6 µM (inactive); in experiment [14], 23.3 µM (active). The half-maximal effective concentration (EC50) in experiment [7] was 5.04 µM (inconclusive). Also, the AC50 is 8.67 µM (active) in [8]; 6.67 µM (active) in experiment [9]; 5.79 µM (active) in [10]; 18 µM (active) in experiment [11]; 17.5 µM (active) in experiment [12].

`O=C(Nc1cc(S(=O)(=O)N2CCOCC2)ccc1N1CCOCC1)c1cc2c(s1)CCC2`: the EC50 in [15] was 6.36 µM (active).

In the case of `Clc1ccccc1-c1nc2ccccc2[nH]1`, the EC50 in [16] was 0.289 µM (active); in experiment [17], 0.36 µM (active); in [18], 13.7 µM (active); in experiment [15], 2.24 µM (active).

For the compound `O=C(O)c1cccc(CN2C(=O)S/C(=C/c3cccc([N+](=O)[O-])c3)C2=O)c1`, in experiment [19], the CC50 is > 40 µM (active). Besides, in experiment [20], the half-maximal inhibitory concentration (IC50) is 83.2 µM (active).

For the compound `CCN(CC)S(=O)(=O)c1ccc2c(c1)nc(CCC(=O)Nc1cccc(C(F)(F)F)c1)n2CC`, the EC50 in [15] was 7.88 µM (active).

Regarding `O=[N+]([O-])c1cc2c(cc1/C=N/n1c(S)nnc1-c1ccccc1)OCO2`, the IC50 was > 100 µM (inactive) in experiment [1] and 1.89 µM (active) in experiment [2].

For the compound `CCN(CC)CCNC(=O)CCCCn1c(=S)[nH]c2c([nH]c3ccc(OC)cc32)c1=O`, the IC50 in experiment [21] was 8.17 µM (active); in experiment [1], > 100 µM (inactive); in [22] it was > 80 µM (inactive); in experiment [23], > 64 µM (inactive); in experiment [2] it was 2.5 µM (active).

In the case of `Cc1nc(SCc2ccc(F)cc2)c2oc3ccccc3c2n1`, in experiment [15], the EC50 is > 32 µM (inactive).

Regarding `O=C1CSC(c2cn(-c3ccccc3)nc2-c2cc3ccccc3oc2=O)N1Cc1ccco1` (centres undefined), the values for the AC50 in experiment [24] and in experiment [25] were 9.09 µM (active) and 30.8 µM (active), respectively.

In the case of `Nc1nn(-c2ccccc2)c(N)c1N=Nc1ccccc1`, the half-inhibitory concentration (IC50) in experiment [3] is 11.9 µM (active); in [4], 9 µM (active).
